Target: human Nav1.7 (Homo sapiens (Human), UniProt Q15858)
Assay: FLIPR or FLIPR TETRA sodium dye assay for sodium channel blocking activity
Format: cell-based
Settings: recombinant HEK293 cells expressing human Nav1.7
Description: In vitro assays were performed in a recombinant cell line expressing cDNA encoding the alpha subunit (Nav1.7, SCN9a, PN1, NE) of human Nav1.7 (Accession No. NM_002977). The cell line was provided by investigators at Yale University (Cummins et al, J. Neurosci. 18(23): 9607-9619 (1998)). For dominant selection of the Nav1.7-expressing clones, the expression plasmid co-expressed the neomycin resistance gene. The cell line was constructed in the human embryonic kidney cell line, HEK293, under the influence of the CMV […] promoter, and stable clones were selected using limiting dilution cloning and antibiotic selection using the neomycin analogue, G418. Recombinant beta and gamma subunits were not introduced into this cell line. Additional cell lines expressing recombinant Nav1.7 cloned from other species can also be used, alone or in combination with various beta subunits, gamma subunits or chaperones.
Unless otherwise noted, cell culture reagents were purchased from Mediatech of Herndon, Va. The recombinant Nav1.7/HEK293 cells were routinely cultured in growth medium consisting of Dulbecco's […] essential medium containing 10% fetal bovine serum (FBS, Hyclone, Thermo Fisher Scientific, Logan, Utah), 100 U/mL penicillin, 100 μg/mL streptomycin, 2-4 mM L-glutamine, and […] G418. For natural, non-recombinant cell lines, the selective antibiotic was omitted, and additional media formulations can be applied as needed.
The final buffer consisted of 20 mM Hepes, pH 7.3, 1.261 mM CaCl2, 0.493 mM MgCl2, 0.407 mM Mg(SO)4, 5.33 mM KCl, 0.441 mM KH2PO4, 137 mM NaCl, 0.336 mM Na2HPO4 and […] D-glucose (Hanks et al., Proc. Soc. Exp. Biol. Med. 71:196 (1949)), and the simple formulation was typically the basic buffer throughout the assay (i.e., all wash and addition steps).
The fluorescence indicator used in the primary fluorescence assay was the cell permeant version of CoroNa™ Green (Invitrogen, Molecular Probes, Eugene, Oreg.), a dye that emits light in the fluorescence range (Harootunian et al., J. Biol. Chem. 264(32):19458-19467 (1989)). The intensity of this emission, but not the wavelength range, is increased when the dye is exposed to Na^+ ions, which it can bind with partial selectivity. Cells expressing Nav1.7 or other sodium channels were loaded with the CoroNa™ Green dye immediately in advance of the fluorescence assay, and then, after agonist stimulation, the mobilization of Na^+ ions was detected as the Na^+ ions flowed from the extracellular fluid into the cytoplasm through the activated sodium channel pores. The dye was stored in the dark as a lyophilized powder, and then an aliquot was dissolved immediately before the cell loading procedure, according to the instructions of the manufacturer, to a stock concentration of 10 mM in DMSO. It was then diluted in the assay buffer to a 4× concentrated working solution, so that the final concentration of dye in the cell loading buffer was 5 μM.
In the fluorescence assays, two agonists were used in combination, namely 1) veratridine; and 2) the venom from the yellow scorpion, Leiurus quinquestriatus hebraeus. Veratridine is an alkaloid small molecule that facilitates the capture of channel openings by inhibiting inactivation, and the scorpion venom is a natural preparation that includes peptide toxins selective for different subsets of voltage-gated sodium channels. These scorpion toxins inhibit the fast inactivation of their cognate target channels. Stock solutions of the agonists were prepared to 40 mM in DMSO (veratridine) and 1 mg/mL in dH2O (scorpion venom), and then diluted to make a 4× or 2× stock (depending on the particular assay) in assay buffer, the final concentration being 100 μM (veratridine) and 10 μg/mL (scorpion venom). Both of the agonists were purchased from Sigma Aldrich, St. Louis, Mo.
Test compounds were dissolved in DMSO to yield 10 mM stock solutions. […]

Chain of human Nav1.7 (Q15858 other isoform, or with tags, fused parts or gaps): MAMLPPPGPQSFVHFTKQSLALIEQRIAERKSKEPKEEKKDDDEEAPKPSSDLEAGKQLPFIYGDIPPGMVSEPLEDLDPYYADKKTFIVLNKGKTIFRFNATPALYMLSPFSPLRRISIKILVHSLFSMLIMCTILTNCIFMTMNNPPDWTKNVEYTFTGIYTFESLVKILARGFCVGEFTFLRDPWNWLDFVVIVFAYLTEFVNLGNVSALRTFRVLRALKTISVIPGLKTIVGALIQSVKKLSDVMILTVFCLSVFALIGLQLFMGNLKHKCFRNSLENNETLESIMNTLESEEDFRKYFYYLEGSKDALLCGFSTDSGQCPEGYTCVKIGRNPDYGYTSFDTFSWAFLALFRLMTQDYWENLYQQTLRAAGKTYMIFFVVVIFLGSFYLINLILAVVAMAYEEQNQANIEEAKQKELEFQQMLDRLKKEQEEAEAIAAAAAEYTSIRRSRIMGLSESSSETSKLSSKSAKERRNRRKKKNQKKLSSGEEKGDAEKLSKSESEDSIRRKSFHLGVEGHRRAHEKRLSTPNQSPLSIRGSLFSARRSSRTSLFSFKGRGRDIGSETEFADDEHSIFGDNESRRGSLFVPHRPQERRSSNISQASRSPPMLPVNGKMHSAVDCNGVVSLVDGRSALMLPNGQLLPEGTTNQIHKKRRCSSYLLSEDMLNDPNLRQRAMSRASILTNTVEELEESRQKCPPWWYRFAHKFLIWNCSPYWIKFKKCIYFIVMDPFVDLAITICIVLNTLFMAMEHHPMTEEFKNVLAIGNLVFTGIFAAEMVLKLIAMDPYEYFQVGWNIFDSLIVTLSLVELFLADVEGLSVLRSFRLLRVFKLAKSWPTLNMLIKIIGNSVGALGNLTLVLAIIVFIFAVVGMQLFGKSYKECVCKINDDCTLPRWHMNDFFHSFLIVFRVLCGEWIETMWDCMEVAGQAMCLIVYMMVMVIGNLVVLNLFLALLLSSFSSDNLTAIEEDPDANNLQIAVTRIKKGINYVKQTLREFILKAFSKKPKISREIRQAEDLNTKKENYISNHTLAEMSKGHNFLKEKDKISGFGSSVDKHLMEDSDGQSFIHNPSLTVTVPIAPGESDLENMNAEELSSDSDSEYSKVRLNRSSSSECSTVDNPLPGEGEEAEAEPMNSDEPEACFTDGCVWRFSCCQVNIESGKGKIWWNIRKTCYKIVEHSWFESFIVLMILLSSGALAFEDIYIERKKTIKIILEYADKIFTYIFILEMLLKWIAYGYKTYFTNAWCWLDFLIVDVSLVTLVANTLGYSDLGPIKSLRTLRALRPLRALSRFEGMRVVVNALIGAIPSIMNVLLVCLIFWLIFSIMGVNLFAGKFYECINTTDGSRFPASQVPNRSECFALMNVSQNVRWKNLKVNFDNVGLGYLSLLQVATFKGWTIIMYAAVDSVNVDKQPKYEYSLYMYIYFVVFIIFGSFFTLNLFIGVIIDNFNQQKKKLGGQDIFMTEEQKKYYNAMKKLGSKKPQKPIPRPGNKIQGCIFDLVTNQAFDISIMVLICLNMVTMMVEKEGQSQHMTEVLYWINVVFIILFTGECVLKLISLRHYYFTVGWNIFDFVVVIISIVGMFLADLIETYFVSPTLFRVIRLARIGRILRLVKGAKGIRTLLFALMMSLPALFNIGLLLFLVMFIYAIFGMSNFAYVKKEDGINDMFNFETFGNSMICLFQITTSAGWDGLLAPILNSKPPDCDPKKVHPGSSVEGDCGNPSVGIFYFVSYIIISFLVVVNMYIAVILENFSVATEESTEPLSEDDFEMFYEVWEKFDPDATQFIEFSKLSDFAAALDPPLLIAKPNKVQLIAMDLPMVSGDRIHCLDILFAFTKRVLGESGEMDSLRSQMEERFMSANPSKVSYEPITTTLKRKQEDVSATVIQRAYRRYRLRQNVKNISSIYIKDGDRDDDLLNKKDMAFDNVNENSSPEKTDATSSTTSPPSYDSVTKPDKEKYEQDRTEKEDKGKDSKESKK

`NC(=O)c1cccc(-c2ccc3[nH]ccc3c2)n1` [Compound 29, 6-(1H-indol-5-yl)picolinamide] and `O=C(c1cccc(-c2ccc3[nH]ccc3c2)n1)N1CCCC1` [Compound 84, (6-(1H-indol-5-yl)pyridin-2-yl)(pyrrolidin-1-yl)methanone] cannot be ordered by IC50: over 20 µM for the first, over 20 µM for the second.

Going from `O=C(Nc1ccc(C(F)(F)F)cc1)c1cccc(-c2ccc3[nH]ccc3c2)n1` [Compound 32, 6-(1H-indol-5-yl)-N-(4-(trifluoromethyl)phenyl)picolinamide] to `O=C(Nc1ccc(C(F)(F)F)cc1)c1cccc(-c2ccc3[nH]ncc3c2)n1` [Compound 77, 6-(1H-indazol-5-yl)-N-(4-(trifluoromethyl)phenyl)picolinamide], the IC50 rises from 0.233 ± 0.035 µM to 2.7 ± 0.524 µM (12-fold). The first is the more potent here.

Compared with `O=C(c1cccc(-c2ccc3[nH]ccc3c2)n1)N(c1ccc(C(F)(F)F)cc1)c1ccc(C(F)(F)F)cc1` [Compound 33, 6-(1H-indol-5-yl)-N,N-bis(4-(trifluoromethyl)phenyl)picolinamide], `O=C(Nc1ccc(C(F)(F)F)cc1)c1cccc(-c2ccc3occc3c2)n1` [Compound 81, 6-(benzofuran-5-yl)-N-(4-(trifluoromethyl)phenyl)picolinamide] is lower in IC50: over 20 µM for the first, 0.782 ± 0.044 µM for the second. The second is the more potent here.

First: C[C@H](Nc1cc(C(N)=O)nc(-c2ccc3[nH]ccc3c2)n1)C(N)=O [Compound 35, (S)-6-((1-amino-1-oxopropan-2-yl)amino)-2-(1H-indol-5-yl)pyrimidine-4-carboxamide]
Second: CC(C)Cn1ccc2cc(-c3nc(N[C@@H](C)C(N)=O)cc(C(N)=O)n3)ccc21 [Compound 47, (S)-6-((1-amino-1-oxopropan-2-yl)amino)-2-(1-isobutyl-1H-indol-5-yl)pyrimidine-4-carboxamide]
The IC50 of the first is higher: over 20 µM for the first, 4.19 ± 0.862 µM for the second. The second is the more potent here.

`NC(=O)c1cc(N[C@H]2CCNC2=O)nc(-c2ccc3[nH]ccc3c2)n1` [Compound 36, (S)-2-(1H-indol-5-yl)-6-((2-oxopyrrolidin-3-yl)amino)pyrimidine-4-carboxamide] and `NC(=O)c1cc(O[C@H]2CCNC2=O)nc(-c2ccc3[nH]ccc3c2)n1` [Compound 37, (S)-2-(1H-indol-5-yl)-6-((2-oxopyrrolidin-3-yl)oxy)pyrimidine-4-carboxamide] cannot be ordered by IC50: over 20 µM for the first, over 20 µM for the second.

Going from `COc1ccc(-c2nc3cc(-c4nc(N[C@H]5CCNC5=O)cc(C(N)=O)n4)ccc3n2-c2ccc(F)cc2)c(OC)c1` [Compound 42, (S)-2-(2-(2,4-dimethoxyphenyl)-1-(4-fluorophenyl)-1H-benzo[d]imidazol-5-yl)-6-((2-oxopyrrolidin-3-yl)amino)pyrimidine-4-carboxamide] to `NC(=O)c1cc(N[C@H]2CCNC2=O)nc(-c2ccc3c(c2)ncn3-c2ccc(C(F)(F)F)cc2)n1` [Compound 45, (S)-6-((2-oxopyrrolidin-3-yl)amino)-2-(1-(4-(trifluoromethyl)phenyl)-1H-benzo[d]imidazol-5-yl)pyrimidine-4-carboxamide], the IC50 rises from 2.02 ± 0.146 µM to 7.21 ± 0.562 µM (3.6-fold). The first is the more potent here.

Going from `OC[C@H](O)c1ccnc(-c2ccc3ncn(-c4ccc(C(F)(F)F)cc4)c3c2)n1` [Compound 50, (R)-1-(2-(1-(4-(trifluoromethyl)phenyl)-1H-benzo[d]imidazol-6-yl)pyrimidin-4-yl)ethane-1,2-diol] to `OC[C@@H](O)c1ccnc(-c2ccc3ncn(-c4ccc(C(F)(F)F)cc4)c3c2)n1` [Compound 51, (S)-1-(2-(1-(4-(trifluoromethyl)phenyl)-1H-benzo[d]imidazol-6-yl)pyrimidin-4-yl)ethane-1,2-diol], the IC50 falls from over 20 µM to 3.51 ± 0.733 µM.

Going from `NC(=O)c1cccc(-c2ccc3c(ccn3Cc3ccc(C(F)(F)F)cc3)c2)n1` [Compound 56, 6-(1-(4-(trifluoromethyl)benzyl)-1H-indol-5-yl)picolinamide] to `NC(=O)c1cccc(-c2ccc3c(ccn3Cc3ccc(F)cc3)c2)n1` [Compound 61, 6-(1-(4-fluorobenzyl)-1H-indol-5-yl)picolinamide], the IC50 rises from 0.23 ± 0.026 µM to 0.801 ± 0.052 µM (3.5-fold). The first is the more potent here.

First: NC(=O)c1cccc(-c2ccc3c(ccn3S(=O)(=O)c3ccc(C(F)(F)F)cc3)c2)n1 [Compound 57, 6-(1-((4-(trifluoromethyl)phenyl)sulfonyl)-1H-indol-5-yl)picolinamide]
Second: Cn1ccc2cc(-c3cccc(C(=O)Nc4ccc(C(F)(F)F)cc4)n3)ccc21 [Compound 75, 6-(1-methyl-1H-indol-5-yl)-N-(4-(trifluoromethyl)phenyl)picolinamide]
The IC50 of the first is 4.6-fold lower: 0.658 ± 0.078 µM for the first, 3.03 ± 0.837 µM for the second. The first is the more potent here.

First: NC(=O)c1cccc(-c2ccc3c(ccn3CC3CCCCC3)c2)n1 [Compound 58, 6-(1-(cyclohexylmethyl)-1H-indol-5-yl)picolinamide]
Second: NC(=O)c1cccc(-c2ccc3c(ccn3CCC3CCCCC3)c2)n1 [Compound 63, 6-(1-(2-cyclohexylethyl)-1H-indol-5-yl)picolinamide]
The IC50 of the first is 4.7-fold lower: 0.237 ± 0.062 µM for the first, 1.12 ± 0.182 µM for the second. The first is the more potent here.

Going from `NC(=O)c1cccc(-c2ccc3c(ccn3S(=O)(=O)C3CCCCC3)c2)n1` [Compound 59, 6-(1-(cyclohexylsulfonyl)-1H-indol-5-yl)picolinamide] to `CC(C)Cn1ccc2cc(-c3cccc(C(N)=O)n3)ccc21` [Compound 67, 6-(1-isobutyl-1H-indol-5-yl)picolinamide], the IC50 falls from 0.927 ± 0.05 µM to 0.308 ± 0.078 µM (3-fold).

`Cc1ccc(Cn2ccc3cc(-c4cccc(C(N)=O)n4)ccc32)cc1` [Compound 62, 6-(1-(4-methylbenzyl)-1H-indol-5-yl)picolinamide] and `NC(=O)c1cccc(-c2ccc3c(ccn3Cc3ccncc3)c2)n1` [Compound 64, 6-(1-(pyridin-4-ylmethyl)-1H-indol-5-yl)picolinamide] cannot be ordered by IC50: over 20 µM for the first, over 20 µM for the second.

First: NC(=O)c1cccc(-c2ccc3c(ccn3CCN3CCOCC3)c2)n1 [Compound 65, 6-(1-(2-morpholinoethyl)-1H-indol-5-yl)picolinamide]
Second: Cc1noc(C)c1Cn1ccc2cc(-c3cccc(C(N)=O)n3)ccc21 [Compound 66, 6-(1-((3,5-dimethylisoxazol-4-yl)methyl)-1H-indol-5-yl)picolinamide]
The IC50 of the first is higher: over 20 µM for the first, 5.55 ± 0.376 µM for the second.

First: Cc1nc(Cn2ccc3cc(-c4cccc(C(N)=O)n4)ccc32)cs1 [Compound 68, 6-(1-((2-methylthiazol-4-yl)methyl)-1H-indol-5-yl)picolinamide]
Second: O=C(Nc1nnn[nH]1)c1cccc(-c2ccc3[nH]ccc3c2)n1 [Compound 87, 6-(1H-indol-5-yl)-N-(1H-tetrazol-5-yl)picolinamide]
The IC50 of the first is lower: 10 to 20 µM for the first, over 20 µM for the second. The first is the more potent here.

Going from `O=C(NC1CCCCC1)c1cccc(-c2ccc3[nH]ccc3c2)n1` [Compound 76, N-cyclohexyl-6-(1H-indol-5-yl)picolinamide] to `O=C(NC1CCCC1)c1cccc(-c2ccc3[nH]ccc3c2)n1` [Compound 85, N-cyclopentyl-6-(1H-indol-5-yl)picolinamide], the IC50 rises from 0.167 ± 0.02 µM to 1.21 ± 0.242 µM (7.2-fold). The first is the more potent here.

`C[C@H](Nc1cc(C(=O)Nc2ccc(C(F)(F)F)cc2)nc(-c2ccc3occc3c2)n1)C(N)=O` [Compound 79, (S)-6-((1-amino-1-oxopropan-2-yl)amino)-2-(benzofuran-5-yl)-N-(4-(trifluoromethyl)phenyl)pyrimidine-4-carboxamide] and `C[C@H](Nc1cc(C(=O)Nc2ccc(C(F)(F)F)cc2)nc(-c2ccc3[nH]ccc3c2)n1)C(N)=O` [Compound 80, (S)-6-((1-amino-1-oxopropan-2-yl)amino)-2-(1H-indol-5-yl)-N-(4-(trifluoromethyl)phenyl)pyrimidine-4-carboxamide] cannot be ordered by IC50: over 20 µM for the first, over 20 µM for the second.

Compared with `O=C(NCC1CCCCC1)c1cccc(-c2ccc3[nH]ccc3c2)n1` [Compound 83, N-(cyclohexylmethyl)-6-(1H-indol-5-yl)picolinamide], `CC1CN(C(=O)c2cccc(-c3ccc4[nH]ccc4c3)n2)CC(C)O1` (stereo not shown) [Compound 86, (6-(1H-indol-5-yl)pyridin-2-yl)(2,6-dimethylmorpholino)methanone] is higher in IC50: 0.18 ± 0.031 µM for the first, over 20 µM for the second.

Reference: US10730866B2, “Indole derivatives and use thereof” (Purdue Pharma L.P., priority 2014, dated 2020)
